Source: PubChem BioAssay AID330 (DTP/NCI, 2004)
“And” between values parts separate entries of the source, which are not always exact repeats. Identical values can stand only once. Toxic doses and inconclusive results are not listed. Square brackets hold non-standard residues; d marks the D form. Peptide text beside a SMILES is read from it. * marks the point of attachment. ξ: configuration not given here. Nle = CCCC[CH](N)C(=O)O; Cbz = O=C(OCc1ccccc1)*; ξAbu = CCC(N)C(=O)O

Test system: P388 leukemia ip, CD2F1 mice, survival T/C
Experiment: NCI In Vivo Anticancer Drug Screen. Data for tumor model P388 Leukemia (intraperitoneal) in CD2F1 (CDF1) mice
Conditions: endpoint: median survival time, higher = longer survival
Summary of the method: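 Mice carrying the transplanted tumor received test compound or vehicle. Survival was recorded in each group, and the value is the treated-group measurement divided by that of the vehicle-treated control group.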

[1] = dose: 50.0 mg/kg/injection, schedule: Q01DX005 (ip), vehicle: Klucel (hydroxypropylcellulose) (HPC)
[2] = dose: 60.0 mg/kg/injection, schedule: Q01DX005 (ip), vehicle: saline with Tween-80
[3] = dose: 120.0 mg/kg/injection, schedule: Q01DX005 (ip), vehicle: saline with Tween-80
[4] = dose: 240.0 mg/kg/injection, schedule: Q01DX005 (ip), vehicle: saline with Tween-80
[5] = dose: 100.0 mg/kg/injection, schedule: Q04DX002 (ip), vehicle: saline with Tween-80
[6] = dose: 12.5 mg/kg/injection, schedule: Q04DX002 (ip), vehicle: saline with Tween-80

CC1=CC(=O)c2c(O)c3c(c(O)c2C1=O)C1C(O)C(C3=O)C23C(=O)c4c(O)c(C)cc(O)c4C(O)=C2C(=O)CC(O)C13 (stereo unspecified)
T/C (dose: 1.5 mg/kg/injection, schedule: Q01DX005 (ip), vehicle: Klucel (hydroxypropylcellulose) (HPC)): 101 % of control
T/C (dose: 3.0 mg/kg/injection, schedule: Q01DX005 (ip), vehicle: Klucel (hydroxypropylcellulose) (HPC)): 115 % of control
T/C (dose: 6.0 mg/kg/injection, schedule: Q01DX005 (ip), vehicle: Klucel (hydroxypropylcellulose) (HPC)): 115 % of control
T/C (dose: 12.0 mg/kg/injection, schedule: Q01DX005 (ip), vehicle: Klucel (hydroxypropylcellulose) (HPC)): 113 % of control
T/C (dose: 12.5 mg/kg/injection, schedule: Q01DX005 (ip), vehicle: Klucel (hydroxypropylcellulose) (HPC)): 108 % of control
T/C (dose: 25.0 mg/kg/injection, schedule: Q01DX005 (ip), vehicle: Klucel (hydroxypropylcellulose) (HPC)): 105 % of control
T/C [1]: 105 % of control

CCC(N)C(=O)NCC(=O)NCC(=O)O (stereo not drawn) (H-[ξAbu]-Gly-Gly-OH)
T/C (dose: 50.0 mg/kg/injection, schedule: Q01DX005 (ip), vehicle: saline): 103 % of control
T/C (dose: 100.0 mg/kg/injection, schedule: Q01DX005 (ip), vehicle: saline): 103 % of control
T/C (dose: 200.0 mg/kg/injection, schedule: Q01DX005 (ip), vehicle: saline): 103 % of control

c1ccc([S][Pb]([c]2ccccc2)([c]2ccccc2)[c]2ccccc2)cc1
T/C (dose: 6.25 mg/kg/injection, schedule: Q01DX001 (ip), vehicle: Klucel (hydroxypropylcellulose) (HPC)): 96 % of control
T/C (dose: 12.5 mg/kg/injection, schedule: Q01DX001 (ip), vehicle: Klucel (hydroxypropylcellulose) (HPC)): 122 % of control
T/C (dose: 25.0 mg/kg/injection, schedule: Q01DX001 (ip), vehicle: Klucel (hydroxypropylcellulose) (HPC)): 114 % of control

C=C1CC[C@@H]2C(C)(C)CCC[C@@]2(C)[C@@H]1Cc1cc(O)ccc1O
T/C (dose: 10.0 mg/kg/injection, schedule: Q01DX009 (ip), vehicle: Klucel (hydroxypropylcellulose) (HPC)): 104 % of control
T/C (dose: 20.0 mg/kg/injection, schedule: Q01DX009 (ip), vehicle: Klucel (hydroxypropylcellulose) (HPC)): 110 % of control
T/C (dose: 40.0 mg/kg/injection, schedule: Q01DX009 (ip), vehicle: Klucel (hydroxypropylcellulose) (HPC)): 116 % of control

COc1cc(OC)c(C2SCC(=O)N2c2nnc(C(F)(F)F)s2)cc1OC (stereo unspecified)
T/C [2]: 100 % of control
T/C [3]: 99 % of control
T/C [4]: 98 % of control

Cc1cnc(=O)[nH]c1NO
T/C (dose: 100.0 mg/kg/injection, schedule: Q04DX002 (ip), vehicle: Klucel (hydroxypropylcellulose) (HPC)): 102 % of control
T/C (dose: 200.0 mg/kg/injection, schedule: Q04DX002 (ip), vehicle: Klucel (hydroxypropylcellulose) (HPC)): 100 % of control
T/C (dose: 400.0 mg/kg/injection, schedule: Q04DX002 (ip), vehicle: Klucel (hydroxypropylcellulose) (HPC)): 98 % of control

CNc1nc(=S)nc(-c2ccccc2)s1
T/C (dose: 50.0 mg/kg/injection, schedule: Q01DX005 (ip), vehicle: saline with Tween-80): 100 % of control
T/C (dose: 100.0 mg/kg/injection, schedule: Q01DX005 (ip), vehicle: saline with Tween-80): 106 % of control
T/C (dose: 200.0 mg/kg/injection, schedule: Q01DX005 (ip), vehicle: saline with Tween-80): 92 % of control

CC(=O)c1ccc([N+](=O)[O-])cc1Cl
T/C [5]: 106 % of control
T/C (dose: 200.0 mg/kg/injection, schedule: Q04DX002 (ip), vehicle: saline with Tween-80): 106 % of control
T/C (dose: 400.0 mg/kg/injection, schedule: Q04DX002 (ip), vehicle: saline with Tween-80): 103 % of control

CCC(C)OC(=S)SSC(=S)OC(C)CC (stereo unspecified)
T/C (dose: 25.0 mg/kg/injection, schedule: Q01DX009 (ip), vehicle: suspension in saline): 105 % of control
T/C (dose: 50.0 mg/kg/injection, schedule: Q01DX009 (ip), vehicle: suspension in saline): 96 % of control
T/C (dose: 100.0 mg/kg/injection, schedule: Q01DX009 (ip), vehicle: suspension in saline): 98 % of control
T/C (dose: 200.0 mg/kg/injection, schedule: Q01DX009 (ip), vehicle: suspension in saline): 109 % of control

CN=C(NC1CCCCC1)c1ccc(NC(=O)c2ccc(C(=O)Nc3ccc(C(=NC)NC4CCCCC4)cc3)cc2)cc1
T/C (dose: 1.5 mg/kg/injection, schedule: Q01DX005 (ip), vehicle: saline with Tween-80): 100 % of control
T/C (dose: 3.0 mg/kg/injection, schedule: Q01DX005 (ip), vehicle: saline with Tween-80): 100 % of control
T/C (dose: 6.0 mg/kg/injection, schedule: Q01DX005 (ip), vehicle: saline with Tween-80): 112 % of control
T/C (dose: 6.25 mg/kg/injection, schedule: Q01DX005 (ip), vehicle: saline with Tween-80): 105 % of control

[Cl][Cu][Cl].[NH-]C1CCCC2CCC[N-]C12 (stereo unspecified)
T/C [6]: 106 % of control

Cc1c2cnccc2c(CO)c2[nH]c3ccccc3c12
T/C [6]: 119 % of control
T/C [5]: 163 % of control

O=C(CCCO)c1nc2ccccc2s1
T/C (dose: 60.0 mg/kg/injection, schedule: Q01DX005 (ip), vehicle: Klucel (hydroxypropylcellulose) (HPC)): 106 % of control
T/C (dose: 120.0 mg/kg/injection, schedule: Q01DX005 (ip), vehicle: Klucel (hydroxypropylcellulose) (HPC)): 101 % of control
T/C (dose: 240.0 mg/kg/injection, schedule: Q01DX005 (ip), vehicle: Klucel (hydroxypropylcellulose) (HPC)): 100 % of control

O=C(Nc1c(Cl)cccc1Cl)Nc1c(Cl)cccc1Cl
T/C [2]: 92 % of control
T/C [3]: 92 % of control
T/C [4]: 94 % of control

COc1cccc2c1C(=O)c1c(O)c3c(c(O)c1C2=O)C[C@@](O)(/C(C)=N/NC(=O)c1ccc(S(N)(=O)=O)cc1)C[C@@H]3OC1CC(N)C(O)C(C)O1 (stereo partly specified)
T/C (dose: 0.78 mg/kg/injection, schedule: Q01DX009 (ip), vehicle: water): 150 % of control
T/C (dose: 1.56 mg/kg/injection, schedule: Q01DX009 (ip), vehicle: water): 161 % of control
T/C (dose: 3.13 mg/kg/injection, schedule: Q01DX009 (ip), vehicle: water): 154 % of control and 182 % of control
T/C (dose: 4.7 mg/kg/injection, schedule: Q04DX003 (ip), vehicle: water): 105 % of control and 106 % of control
T/C (dose: 6.25 mg/kg/injection, schedule: Q01DX009 (ip), vehicle: water): 178 % of control and 201 % of control
T/C (dose: 12.5 mg/kg/injection, schedule: Q01DX001 (ip), vehicle: water): 161 % of control
T/C (dose: 12.5 mg/kg/injection, schedule: Q01DX009 (ip), vehicle: water): 196 % of control and 214 % of control
T/C (dose: 18.8 mg/kg/injection, schedule: Q04DX003 (ip), vehicle: water): 123 % of control
T/C (dose: 25.0 mg/kg/injection, schedule: Q01DX001 (ip), vehicle: water): 188 % of control
T/C (dose: 37.5 mg/kg/injection, schedule: Q04DX003 (ip), vehicle: water): 203 % of control
T/C (dose: 75.0 mg/kg/injection, schedule: Q04DX003 (ip), vehicle: water): 122 % of control
T/C (dose: 150.0 mg/kg/injection, schedule: Q04DX003 (ip), vehicle: water): 100 % of control and 93 % of control

C1CC(CCC2CCNCC2)CCN1
T/C (dose: 25.0 mg/kg/injection, schedule: Q01DX009 (ip), vehicle: saline): 96 % of control
T/C (dose: 50.0 mg/kg/injection, schedule: Q01DX009 (ip), vehicle: saline): 97 % of control

Cn1ncc2c(NCc3ccccc3)ncnc21
T/C (dose: 6.25 mg/kg/injection, schedule: Q01DX009 (ip), vehicle: saline sonified): 95 % of control
T/C (dose: 12.5 mg/kg/injection, schedule: Q01DX009 (ip), vehicle: saline sonified): 95 % of control
T/C (dose: 25.0 mg/kg/injection, schedule: Q01DX009 (ip), vehicle: saline sonified): 109 % of control
T/C (dose: 50.0 mg/kg/injection, schedule: Q04DX003 (ip), vehicle: saline with Tween-80): 109 % of control
T/C (dose: 100.0 mg/kg/injection, schedule: Q04DX003 (ip), vehicle: saline with Tween-80): 104 % of control
T/C (dose: 200.0 mg/kg/injection, schedule: Q04DX003 (ip), vehicle: saline with Tween-80): 95 % of control

CSC(=S)c1ccc(O)c2ccccc12
T/C (dose: 50.0 mg/kg/injection, schedule: Q01DX009 (ip), vehicle: saline with Tween-80): 114 % of control
T/C (dose: 100.0 mg/kg/injection, schedule: Q01DX009 (ip), vehicle: saline with Tween-80): 114 % of control
T/C (dose: 200.0 mg/kg/injection, schedule: Q01DX009 (ip), vehicle: saline with Tween-80): 105 % of control

CCCCC(NC(=O)OCc1ccccc1)C(=O)NC(C(=O)O)C(C)C (stereo unspecified) (Cbz-[Nle]-Val-OH; configuration not given here)
T/C [1]: 99 % of control
T/C (dose: 100.0 mg/kg/injection, schedule: Q01DX005 (ip), vehicle: Klucel (hydroxypropylcellulose) (HPC)): 111 % of control
T/C (dose: 200.0 mg/kg/injection, schedule: Q01DX005 (ip), vehicle: Klucel (hydroxypropylcellulose) (HPC)): 104 % of control
